Laboratory results as given in patent US20190201419A1, “COMPOUND AND METHOD FOR THE TREATMENT AND DIAGNOSIS OF NEURODEGENERATIVE CONDITIONS” (Swansea University, priority 2013, published 2019).

Experiments:
Fxr = target: T1, Fxr (Homo sapiens, UniProt Q96RI1); test: Fxr luciferase reporter assay in SN4741 neural cells; type: cell-based, mouse; conditions: 24 h
T1 construct: expressed in transfected cells; host or cells: SN4741 mouse neuronal cell line
T1 sequence (Q96RI1 1-486): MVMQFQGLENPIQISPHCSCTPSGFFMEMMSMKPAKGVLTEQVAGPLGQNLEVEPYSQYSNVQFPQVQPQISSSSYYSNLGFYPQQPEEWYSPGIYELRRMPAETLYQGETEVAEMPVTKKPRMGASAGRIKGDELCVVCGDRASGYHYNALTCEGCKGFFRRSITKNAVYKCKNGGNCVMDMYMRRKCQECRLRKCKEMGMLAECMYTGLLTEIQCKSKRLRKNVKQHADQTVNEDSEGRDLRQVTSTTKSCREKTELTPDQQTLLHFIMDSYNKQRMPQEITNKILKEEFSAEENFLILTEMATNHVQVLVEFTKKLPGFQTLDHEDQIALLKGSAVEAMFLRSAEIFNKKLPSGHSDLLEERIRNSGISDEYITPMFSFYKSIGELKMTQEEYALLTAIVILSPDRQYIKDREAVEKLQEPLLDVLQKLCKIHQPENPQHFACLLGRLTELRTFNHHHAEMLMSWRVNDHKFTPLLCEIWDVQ
Experimental: (§1) Luciferase Reporter Assay. The ability of oxysterols and their acidic metabolites to activate several nuclear receptors i.e. Lxrα and β, Fxr, Vdr, Nurr1 was tested in luciferase assays. Transient transfection studies were performed in the mouse neuronal cell line SN4741. This cell line was selected as the oxysterols and acidic metabolites tested were initially identified in CSF. Cells were plated in 24-well plates ([…] cells/well) 24 hr before transfection and transfected with 1 μg of plasmid DNA/well complexed with 2 μL of Lipofectarnine 2000 (Invitrogen), Cells were transfected with 400 ng of a Lxr-, Fxr-, Vdr- or Nurr1-responsive luciferase reporter construct, and 200 ng of Lxrα, Lxrβ, Fxr, Vdr or Nurr1. A reporter gene expressing the Renilla luciferase (pRL-TK, Promega) was co-transfected in all experiments as an internal control for normalization of transfection efficiency. After a 12 h incubation, the lipid/DNA mix was replaced with fresh 2.5% serum medium containing vehicle or appropriate ligand (10 μM), as specified in each experiment. […] Luciferase activities were assayed 24 h later using the Dual-Luciferase Reporter Assay System (Promega), following the manufacturer's protocol.

[1] = test system: Nur-related factor 1 (Nurr1)/retinoid X receptor (Rxr) heterodimers; test: DR5 element luciferase reporter assay (Nurr1/Rxr) in SN4741 neural cells; type: cell-based, mouse; conditions: 10 μM
Text: (§2) Luciferase Reporter Assay.

Lxrβ = target: T2, Lxrβ (Homo sapiens, UniProt P55055); test: Lxrβ luciferase reporter assay in SN4741 neural cells; type: cell-based, mouse; conditions: SN4741 cells, 10 μM, 24 h
T2 construct: expressed in transfected cells; host or cells: SN4741 mouse neuronal cell line
T2 sequence (P55055 1-460): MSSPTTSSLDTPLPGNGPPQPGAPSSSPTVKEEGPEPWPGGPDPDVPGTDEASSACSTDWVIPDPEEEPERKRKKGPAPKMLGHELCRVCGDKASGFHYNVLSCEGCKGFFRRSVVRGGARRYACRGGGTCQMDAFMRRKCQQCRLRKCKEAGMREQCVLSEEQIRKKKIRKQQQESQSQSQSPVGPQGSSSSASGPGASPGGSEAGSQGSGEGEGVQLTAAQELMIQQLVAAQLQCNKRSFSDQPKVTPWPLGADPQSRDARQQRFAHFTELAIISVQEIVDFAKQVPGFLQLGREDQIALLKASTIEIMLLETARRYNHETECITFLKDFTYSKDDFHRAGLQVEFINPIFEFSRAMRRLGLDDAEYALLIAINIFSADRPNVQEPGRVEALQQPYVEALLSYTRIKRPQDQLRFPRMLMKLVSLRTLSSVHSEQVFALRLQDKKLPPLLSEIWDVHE
Text: as §2

[2] = test system: Islet1+ oculomotor neurons; test: Islet1+ cells in mouse E11.5 brain primary cultures; type: cell-based
Experimental: (§3) Primary Brain Cultures. Brains from E11.5 mice were manually dissected, plated on poly-D-lysine (150,000 cells/cm^2) and grown in serum-free N2 media consisting of 1:1 mixture of F12 and DMEM with 10 ng/mL insulin, 100 μg/mL apo-transferrin, 100 μM putrescine, 20 nM progesterone, 30 nM selenium, 6 mg/mL glucose, and 1 mg/mL BSA. Cells were treated for 3 days in vitro (DIV) with the compounds of interest, fixed with 4% PFA and processed for staining using appropriate antibodies.
(§4) Antibodies and Detection Procedures. Cells were fixed in 4% PFA, washed in PBS and blocked in 5% normal goat serum/PBS for 1 h at room temperature. Primary antibodies were diluted in PBS (pH 7.4), 0.3% Triton X-100, 1% BSA and incubations were carried out overnight at +4° C. or at room temperature for 2 h. The antibodies used were anti-:BrdU (1:400; Abeam), Islet-1 (1:100: Developmental Studies Hybridoma Bank), cleaved caspase-3 (Aspt 75) (1:100; Cell Signaling Technology), tyrosine hydroxylase (TH; 1:1000; Pel-Freeze) GABA (1:1,000; Sigma), Bm3a (1:250; Millipore), Nkx6.1 (1:200; Novus Biologicals), choline acetyltransferase (ChAT; 1:500; Millipore) and appropriate secondary antibodies (Jackson ImmunoResearch or Alexa). Cells positive for the corresponding marker were counted directly at the microscope at a magnification of 20×. Cells were counted in every well, in eight consecutive fields (going from one side of the well to the other, passing through the center), in three different wells per experiment and in three different experiments per condition. Random pictures of the wells were taken for every condition to document the result, and representative pictures were subsequently selected to represent the quantitative data. Photos were acquired with a Zeiss Axioplan microscope and a Hamamatsu camera C4742-95 using the Openlab software.

active caspase 3+ cells = test: Active caspase 3+ cells in mouse E11.5 brain primary cultures; type: cell-based; conditions: wt cultures; 3β,7α-diHCA, 3βH,7O-CA, 25-HC at 10 μM; toxic acids at low concentrations
Experimental: as §3, §4

[3] = LC-ESI-MSn of cholestenoic acids in mouse brain; conditions: 23 month old male Cyp7b1−/− mice
Text: Animals. Lxra,−/−β−/− mouse cell cultures were from the colony at the Department of Biosciences and Nutrition at Novum, Karolinska Institutet. Male and female wild-type and Lxrα−/−β−/− mice were generated as previously described (Alberti et al. J. Clin. Invest 2001:107(5), 565-73). Mice were back crossed onto a C57BL/6 background for 10 generations. Male Cyp7b1−/− mouse brain and plasma were from animals generated at the University of Edinburgh. Male mice homozygous for targeted disruption of the Cyp7b1 gene congenic on the C57BL/6 genetic background (>15 generations backcrossed to C57BL/6) and wild-type littermate controls were generated from Cyp7b1−/+ crosses. Male cyp27a1−/− mouse tissue and plasma was purchased from The Jackson Laboratory (ME, USA) strain B6.129-Cyp27a1^tm1Elt/J. The Cyp27a1−/− colony was backcrossed to C57BL/6J inbred mice for approximately 12 generations by the donating investigator prior to sending to The Jackson Laboratory Repository. Upon arrival, mice were bred to C57BL/6J inbred mice for at least one generation to establish the colony. Wild type animals from the colony were used as controls.
Extraction of Sterols. […]
Charge Tagging of Sterols. The sterols were charge-tagged with the GP-hydrazine to enhance their response when analysed by LC-ESI-MS and tandem mass spectrometry (MS^n).

Islet-1 = Islet-1 expression in Tg[Isl1:GFP] zebrafish embryos; type: in vivo; conditions: 10 μM, embryos 48 hpf
Experimental: Quantitative PCR, Total RNA was extracted from SN4741. cells and zebrafish treated with the compounds of interest using the RNeasy Mini Kit (Qiagen), 1 μg was treated with RQ1 RNase-free DNase (Promega) and reverse transcribed using SuperScript II Reverse Transcriptase (invitrogen) and random primers (invitrogen) (RT+reaction). Parallel reactions without reverse transcriptase enzyme were done as a control (RT−reaction), and Sybergreen real-time quantitative PCR assays were performed. Expression levels were obtained by normalization with the Value of the housekeeping gene encoding actin obtained for every sample in parallel assays.
Zebrafish Strain and Maintenance Zebrafish were raised on a 14/10 h day/night cycle and were kept at 28.5 ° C. Islet-1:GFP transgenic embryos were obtained via natural spawning and staged in hours or days post fertilization (hpf and dpt) according to Kimmel et al). Embryos older than 24 hpf were treated with 0.03% phenylthiourea (PTU) to inhibit pigmentation. MO injections were performed using splice site specific zebrafish lxi MO MO injected embryos were immediately dechorionated and transferred to a 96 well plate and exposed to dimethyl sulfoxide (DMSO) treated or ligand treated medium. Compound Exposure. Islet-1:GFP embryos were collected by natural mating and immediately (at 1 cell stage) dechorionated and transferred to a 96 well plate. Each of the compounds tested were obtained as 10 mM stock and diluted in embryo medium to a final concentration of 10 μM, and 200 μL was added to each well. DMSO or propan-2-ol treated embryo medium was taken as control. Ligand solutions were replaced every 12 h with fresh ligand solution prepared in PTU treated embryo medium. Embryos were collected at 48 hpf, fixed for 4 h at room temperature with 4% paraformaldehyde and then washed and kept in PBST. Immunocytochemistry was performed using an anti-GFP antibody and fluorescence was viewed and photographed using a Zeiss Axioplan compound microscope and a Zeiss Axiocam digital camera.

Lxrα = target: T3, Lxrα (Homo sapiens, UniProt Q13133); test: Lxrα luciferase reporter assay in SN4741 neural cells; type: cell-based, mouse
T3 construct: expressed in transfected cells; host or cells: SN4741 mouse neuronal cell line
T3 sequence (Q13133 1-447): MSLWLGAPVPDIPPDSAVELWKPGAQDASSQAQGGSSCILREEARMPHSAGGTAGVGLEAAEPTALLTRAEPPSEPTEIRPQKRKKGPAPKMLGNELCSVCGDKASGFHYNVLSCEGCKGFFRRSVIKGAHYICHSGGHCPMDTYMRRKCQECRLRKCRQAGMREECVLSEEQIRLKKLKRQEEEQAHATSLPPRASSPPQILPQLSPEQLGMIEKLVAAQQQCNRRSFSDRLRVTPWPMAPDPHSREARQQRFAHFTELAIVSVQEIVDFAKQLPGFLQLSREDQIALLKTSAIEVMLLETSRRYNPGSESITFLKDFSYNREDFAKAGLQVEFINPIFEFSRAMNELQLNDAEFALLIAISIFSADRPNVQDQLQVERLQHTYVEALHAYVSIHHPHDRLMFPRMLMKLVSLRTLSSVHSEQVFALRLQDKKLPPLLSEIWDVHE
Text: as §2

Vdr = target: T4, Vdr (Homo sapiens, UniProt P11473); test: Vdr luciferase reporter assay in SN4741 neural cells; type: cell-based, mouse; conditions: 10 μM
T4 sequence (P11473 1-427): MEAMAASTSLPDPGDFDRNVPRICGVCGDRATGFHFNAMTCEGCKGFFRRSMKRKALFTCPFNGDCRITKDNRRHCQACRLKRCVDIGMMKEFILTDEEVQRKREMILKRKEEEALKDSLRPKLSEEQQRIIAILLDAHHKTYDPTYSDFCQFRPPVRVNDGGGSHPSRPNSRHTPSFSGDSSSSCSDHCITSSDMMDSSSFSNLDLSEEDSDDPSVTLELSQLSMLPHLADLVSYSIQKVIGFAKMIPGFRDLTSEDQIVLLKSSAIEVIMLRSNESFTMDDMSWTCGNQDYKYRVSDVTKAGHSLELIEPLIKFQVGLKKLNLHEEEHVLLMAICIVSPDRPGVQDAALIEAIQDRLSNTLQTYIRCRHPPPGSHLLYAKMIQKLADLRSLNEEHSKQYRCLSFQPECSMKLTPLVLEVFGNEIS
Experimental: as §1

## C[C@H](CCC(=O)O)[C@H]1CC[C@H]2[C@@H]3CC=C4C[C@@H](O)CC[C@]4(C)[C@H]3CC[C@]12C [3βH-Δ^5-BA, 3β-hydroxychol-5-en-24-oic acid]
Fxr
  Fxr activation, luciferase reporter: also activated Fxr, but was less potent than CDCA

## CC1=C(/C=C/C(C)=C\C=C\C(C)=C\C(=O)O)C(C)(C)CCC1 [9-cis-RA, 9-cis-retinoic acid]
[1]
  DR5 (Nurr1/Rxr) luciferase reporter activation: activated this reporter

## C[C@H](CCCC(C)(C)O)[C@H]1CC[C@H]2[C@@H]3CC=C4C[C@@H](O)CC[C@]4(C)[C@H]3CC[C@]12C [25-HC, cholest-5-ene-3β,25-diol]
Lxrβ
  Lxrβ activation, luciferase activity (fold activation): activate Lxr
[2]; cultures from Lxrα−/−β−/− mice
  Effect on Islet1+ cells in Lxrα−/−β−/− cultures: blocked in cultures from Lxrα−/−β−/− animals
[2]; wild type cultures
  Number of Islet1+ cells: increase the number of Islet1+ oculomotor cells
[2]; wt cultures, 10 μM GGPP
  Effect on Islet1+ cells with Lxr antagonist GGPP: inhibited by the Lxr antagonist GGPP
Active caspase 3+ cells
  Number of active caspase-3+ cells: reduced the number of active caspase-3+ cells
[3]
  Level in Cyp7b1−/− mouse brain: > 2 ng/mg
Islet-1
  Islet-GFP expression: induced a modest increase in the levels of islet-1
Lxrα; 10 μM metabolite + 10 μM GGPP
  Lxr luciferase activity with addition of the Lxr antagonist GGPP: similarly blocked
Lxrα; 10 μM, 24 h
  Lxrα activation, luciferase activity (fold activation): activate Lxr

## C[C@H](CCC(=O)O)[C@H]1CC[C@H]2[C@@H]3CC[C@@H]4C[C@H](O)CC[C@]4(C)[C@H]3CC[C@]12C [LCA, lithocholic acid]
Vdr
  Vdr activation, luciferase reporter: activated a vitamin D receptor (Vdr) luciferase reporter
